Source: US4511577A, “Derivatives of benzoic acid” (Media Research s.r.l., priority 1983, dated 1985)

Key:
[1] = test system: carrageenin induced oedema in rat paw; experiment: carrageenin induced oedema in rat paw (antiinflammatory activity); assay type: in vivo; settings: 75 mg/kg per os; for AREA Δ % (paw volume): control 243.3; for paw average volume, 30' / paw average volume, 1h / paw average volume, 2h / paw average volume, 3h / paw average volume, 6h / paw average volume, Basal: 5 animals
Protocol: The antiinflammatory activity of MR-[…] in comparison with acetylsalicylic acid was determined by the test of carrageenin induced oedema in rat paw, according to the method of Winter, […], Ness. (Proc. Soc. Exp. Biol. Med., 111, 544-547, 1962). […] The paw volume was determined using an apparatus supplied by U. Basile Ltd.

[2] = tail-flick test (analgesic activity); assay type: in vivo; settings: 75 mg/kg os; for AREA Δ % (tail-flick): control 170.45
Protocol: The analgesic activity was determined according to the tail-flick test, employing an apparatus supplied by Socrel Ltd., Milano, Italy.

gastric mucosa = experiment: gastro-injuring action on the gastric mucosa; assay type: in vivo, Male Sprague-Dawley rats; settings: oral, equimolecular doses, rats fasted 48 hours
Protocol: The action on the gastric mucosa of MR-Y134 in comparison with equimolecular doses of ASA was determined according to the method described by Pisanti and Volterra (I1 Farmaco, vol. 25, (2), 105).
The products were administered orally.
Male Sprague-Dawley rats were used fastened for 48 hours with water ad libitum.
The control group was administered with the solvent only (1% carboxymethylcellulose).

[3] = plasmatic kinetics in rat after oral administration
Protocol: The plasmatic kynetic of acetylsalicylic acid in rat was compared after oral administration of equimolecular doses of MR-Y134 and […] (466 mg/kg MR-Y134 and 300 mg/kg ASA respectively).
The compounds were both administered in the form of 2% gum arabic suspension to rats fastened for 12 hours. Each animal was administered with 1.0 ml of solution.
The rats were killed at the following times: 1, 2, 4, 8, 12 hours after the administration of the compounds.
The blood sample was drawn in heparin.

Row | Compound | % inhibition versus control (area, paw oedema) [1] [%] | AREA Δ % (paw volume) [1] | Percent variation of paw volume with respect to 0 time, 30' [1] [%] | paw average volume, 30' [1] [mL] | Percent variation of paw volume with respect to 0 time, 1h [1] [%] | paw average volume, 1h [1] [mL] | Percent variation of paw volume with respect to 0 time, 2h [1] [%] | paw average volume, 2h [1] [mL] | Percent variation of paw volume with respect to 0 time, 3h [1] [%] | paw average volume, 3h [1] [mL] | Percent variation of paw volume with respect to 0 time, 6h [1] [%] | paw average volume, 6h [1] [mL] | paw average volume, Basal [1] [mL] | % inhibition versus control (area, tail-flick) [2] [%] | AREA Δ % (tail-flick) [2] | Percent variation of reaction time with respect to 0 time, 1h [2] [%] | Reaction time, 1h [2] [s] | Percent variation of reaction time with respect to 0 time, 3h [2] [%] | Reaction time, 3h [2] [s] | Percent variation of reaction time with respect to 0 time, 6h [2] [%] | other results
1 | O=C(Oc1ccccc1C(=O)O)c1cccs1 [MR-Y134, 2-(2-thenoyloxy)-benzoic acid] | 47.51 | 127.69 Δ % | 8.03 | 1.71 | 14.96 | 1.82 | 14.18 | 1.8 | 20.46 | 1.9 | 76.48 | 2.79 | 1.58 | 50.18 | 84.91 Δ % | 9.36 | 8.9 | 18.94 | 7.96 | 15.68 | antiinflammatory activity compared with ASA ([1]; equal amounts by weight): good antiinflammatory activity, substantially equal to the one of ASA; Reaction time, 6h [2]: 8.28 s; Reaction time, Basal [2]: 9.82 s; analgesic activity compared with ASA ([2]; equal amounts by weight): three times higher than the one of ASA; gastro-injuring activity compared with ASA (gastric mucosa): scarce gastro-injuring activity, substantially lower than the one of ASA; height of plasma peak compared with sodium salicylate ([3]; rat, in vivo, po): substantially higher; persistence in the bloodstream ([3]; rat, in vivo, po): higher and more prolonged persistence in the bloodstream; time of plasma peak ([3]; rat, in vivo, po): third hour
2 | O=C([O-])c1ccccc1O.[Na+] [SODIUM SALICYLATE, sodium salicylate] |  |  |  |  |  |  |  |  |  |  |  |  |  |  |  |  |  |  |  |  | time of plasma peak ([3]; oral, equimolecular doses): second hour; concentration at 1 h ([3]; rat, in vivo, po, 300 mg/kg): 362 µg/mL; concentration at 2 h ([3]; rat, in vivo, po, 300 mg/kg): 534 µg/mL; concentration at 4 h ([3]; rat, in vivo, po, 300 mg/kg): 470 µg/mL; concentration at 8 h ([3]; rat, in vivo, po, 300 mg/kg): 456 µg/mL; concentration at 12 h ([3]; rat, in vivo, po, 300 mg/kg): 325 µg/mL
3 | CC(=O)Oc1ccccc1C(=O)O [ASA, acetylsalicylic acid] | 53.41 | 113.35 Δ % | 9.71 | 1.69 | 13.57 | 1.75 | 16.30 | 1.79 | 17.71 | 1.81 | 62.13 | 2.49 | 1.55 | 16.61 | 142.13 Δ % | 23.01 | 7.16 | 26.66 | 6.82 | 27.31 | Reaction time, 6h [2]: 6.76 s; Reaction time, Basal [2]: 9.30 s
